Laboratory results as given in paper PMC12673918, “Design, Synthesis, and Selective Antiproliferative Activity of Indolizine Derivatives as Microtubule Destabilizers” (Archiv Der Pharmazie, 2025).

Tested on: BT‐20 breast cancer cells
Test: Western blot of cell‐cycle, apoptosis and signaling proteins
Type: cell-based
Settings: 2.5 µM for 24 h
Procedure: Cells were seeded in 10 cm plates (1.5 × 10⁶ cells/plate) and incubated for 24 h. Subsequently, the cells were treated with the compounds at a concentration of 2.5 µM for 24 h. After treatment, the cells were collected, and the proteins were isolated. A total of 30 µg of proteins were separated electrophoretically on a sodium dodecyl sulfate‐polyacrylamide gel (SDS‐PAGE) and transferred onto a polyvinylidene fluoride (PVDF) membrane (GE Healthcare) using the PowerBlotter Station (Invitrogen) according to the manufacturer's recommendations. After transfer, the membrane was blocked with a 5% (w/v) nonfat milk solution in TBS‐T (0.1 M Tris (pH 7.5), 0.9% NaCl, 0.1% Tween‐20) at room temperature for 1 h under gentle agitation. The membrane was then washed with TBS‐T and incubated with primary antibodies under agitation for approximately 16 h at 4°C. The primary antibodies used were: c‐Myc (#5605), ß‐tubulin (#2128), p21 (#2947), Cyclin D1 (#2978), Bcl‐2 (#15071), p‐AKT ser473 (#4058), and GAPDH (#2118) (Cell Signaling Technology). After primary antibody incubation, the membranes were washed with TBS‐T and incubated at room temperature for 1 h in a TBS‐T solution containing 5% nonfat milk and the HRP‐conjugated secondary antibody. Following the washes with TBS‐T, the membranes were incubated with the SuperSignal West Dura substrate (Thermo Scientific). Immunodetection was analyzed using the ChemiDoc imaging system (Bio‐Rad).

| Structure (SMILES) | Bcl‐2 levels | cyclin D1 levels | p21 expression |
| --- | --- | --- | --- |
| CCCc1cn2cc(OC)ccc2c1C(=O)c1cc(OC)c(OC)c(OC)c1 [Compound 8h, (6‐methoxy‐2‐propylindolizin‐1‐yl)(3,4,5‐trimethoxyphenyl)methanone] | decrease | markedly decreased | upregulated |
| COc1ccc2c(C(=O)c3cc(OC)c(OC)c(OC)c3)c(C(F)(F)F)cn2c1 [Compound 8e, [6‐methoxy‐2‐(trifluoromethyl)indolizin‐1‐yl](3,4,5‐trimethoxyphenyl)methanone] | decrease | markedly decreased | upregulated |
